Reference: patent EP4610267A1, “CYCLIC DINUCLEOTIDES AND CONJUGATES THEREOF WITH ANTIBODIES” (priority 2024, dated 2025)

How the values were obtained:
[1] = Pharmacokinetics of Compound 2.2 applied i.v.; format: in vivo; conditions: mice (Balb/c), 5mg/kg i.v.
Experimental: Pharmacokinetics of Compound 2.2 applied I.V. at dose 5mg/kg was determined in Balb/c mice. Plasma samples were precipitated with methanol (final concetration 70%) spiked with internal standard, the precipited proteins were removed by centrigugation and supernatant was evaporated. The analytes were dissolved in 100 µL of 10 mM CH3COONH4 by vortexing for 5 min. Compound 22 along with the corresponding internal standard were separated and detected using a liquid chromatograph Exion LC AD with tandem mass spectrometer QTrap 6500+ (both Sciex) equipped with a separation column Acquity BEH C18 1.7 µm, 50 × 2.1 mm, as well as a guard column 1.7 µm C18, 5 × 2.1 mm (both Waters). The mobile phase (A) used for separation consisted of 10 mM CH3COONH4 in deionized water, while mobile phase (B) was composed of 10 mM CH3COONH4 in methanol. […] Analytes were monitored through their specific multiple reaction monitoring (MRM) transitions by utilizing electrospray ionization (ESI) in a positive mode with the following parameters: 50 msec dwell time, entrance potential 10 V, ion source temperature 350°C, ion spray voltage 5.5 kV, curtain gas (40 psi), GS1 gas (50 psi), and GS2 gas (50 psi). Quantification of Compound 2.2 was conducted using a weighted calibration curve (1/x^2) with a structurally similar internal standard.

[2] = tested on: STING-dependent cytokine IP10 (CXCL10) in HCC1954 cells; assay: IP10 (CXCL10) induction in HCC1954 cells; format: cell-based, human; conditions: free Warhead CDN, no antibody
Experimental: HCC1954 and 293T reporter cells were cultured as previously described. HCC1954 cells, which naturally express both Her2 and TROP2, were seeded into collagen-coated 96-well plates at a density of 0.5×10^6 cells/ml (100 µl/well) in RPMI medium supplemented with 10% FBS and Penicillin/Streptomycin. The following day, the medium was completely removed, and serial dilutions of mAb2-CDN and mAb5-CDN conjugates in medium were added to the wells. Levels of the STING-dependent cytokine IP10 (CXCL10) induction were determined in the medium using ProcartaPlex Immunoassays after 24 hours of incubation following the manufacturer's protocol and measured on a MagPix instrument. […] Nonlinear regression curve fitting was applied for EC50 value calculations. The EC50 value represents the concentration of the payload CDN 2.2 conjugated to anti-Her2 mAb2 or anti-TROP2 mAb5 that results in half-maximal levels of IP-10. Twenty million 293T WT STING reporter cells were seeded into two T150 flasks, each containing 30 mL of DMEM with high glucose supplemented with 10% heat-inactivated FBS. One flask was designated for transfected cells, and the other served as a non-transfected control. After 24 hours, the cell culture medium was replaced with 27 mL of fresh media. […] A 50 µL mixture was transferred to white 96-well plates, and luminescence was measured using a TECAN reader.

## Nc1ncnc2c1ncn2[C@@H]1O[C@@H]2OCP(=O)(S)O[C@@H]3[C@H](F)[C@@H](COP(=O)(S)OC[C@H]2[C@H]1F)O[C@H]3n1cnc2c(=O)[nH]cnc21 (single isomer, unassigned) [Compound 2.2]
[1]
  half-life: less than 10 minutes
[2]
  EC50: 1700 nM
